Where two headings read alike, the source gives them in different places.

Data set [1] relates to AD hippocampus tissue homogenate (tau lesion). In words: Saturation binding experiment with AD hippocampus tissue homogenate. The arrangement: species or system human. The settings on record: 0.1 to 100 nM. Here is the method:
Further, according to the above-mentioned assay buffer, nonspecific binding measurement, and filter separation operation, each saturation binding experiment of [^18F]THK-5151S and [^18F]THK-5151R was carried out with AD hippocampus tissue homogenate. Zero point one (0.1) to 100 nM of each tested substance was incubated with hippocampus homogenate, and then filtered with a filter, washed, and then measured radioactivity supplemented by the filter, and thereby calculated as total binding and nonspecific binding at each concentration. The data was analyzed with GraphPad Prism (Ver. 5) to calculate binding dissociation constants Kd and Bmax. The binding curve of the results and the analysis results are shown as FIG. 6c.

Data set [2] in a line: Dynamic evaluation of normal mouse brain by biodistribution method. The data set is classed as in vivo, ICR mouse. Here is the method:
A saline comprising [^18F]THK-5105S or [18F]THK-5105R was administered intravenously via tail to ICR mouse (male 6 to 7 weeks old), and the time change of radioactivity distribution in brain was measured on Clairvivopet/CT (manufactured by Shimadzu Corporation, Kyoto). The brain dynamics was evaluated by the time-change of the accumulation rate of radioactivity in brain tissue after 2 min., 10 min., 30 min., 60 min., and 120 min.
The accumulation rate of radioactivity was calculated as the ratio of radioactivity per weight of evaluated tissue against total administered radioactivity (% Injected Dose/g of tissue; % ID/g). The measurement of the radioactivity was carried out with Gamma counter (Accuflex γ7000, measured by Hitachi-Aloka Medical, Tokyo). The experimental procedure was as follows. After administering the label compound intravenously via tail at 2 min., 10 min., 30 min., 60 min., and 120 min., cervical dislocation of mouse was performed under ether anesthesia, and organ tissues were extracted. The radioactivity and the weight of each sample were measured, and the data was analyzed to calculate % ID/g. Also, as the evaluation index for the disappearance from the brain, the divided value of the accumulation rate at 2 min. after administration by the accumulation rate at 60 min. after administration (2 min./60 min. ratio) was calculated.

Data set [3] relates to tau lesion region. In words: Autoradiography of hippocampus sections of an Alzheimer's disease patient. It is filed as binding, human. The settings on record: AD hippocampus section, about 400 μCi/ml, in comparison with the corresponding R-form. Here is the method:
A brain specimen in hippocampus of the patient which was definitively-diagnosed as Alzheimer's disease pathologically was used. A paraffin-embedded brain tissue was sliced by 6 μm or 8 μm thick, and stretched on a glass slide, and dried. The paraffin brain sections were deparaffinized by washing sequentially with xylene 10 min.×2, 100% ethanol 5 min.×2, 90% ethanol 5 min., and flowing water 10 min. After deparaffinization, the sections were immersed in PBS. Each of about 400 μCi/ml of [^18F]THK-5105S and [^18F]THK-5105R was added dropwise to the sections, and the sections were allowed to a reaction at room temperature for 10 min. Thereafter, the sections were immersed in distilled water for 2 min., and successively, shaked lightly in 50% EtOH for 2 min., and thereafter immersed in distilled water for 2 min. again, and dried on paraffin stretching plate. Then, the sections were contacted with imaging plate, and allowed to stand overnight, and on next day, the imaging was read on BAS5000 (manufactured by FUJIFILM Holdings Corporation).
The autoradiography experiments were also carried out similarly on [^18F]THK-5151S and [^18F]THK-5151R.
THK-5105R and [^18F] THK-5151R in tau lesion region, which means that they binds more strongly to tau pathology.

Data set [4] has as its target AD brain tissue homogenates (Homo sapiens, UniProt P10636). Nature of the data set: Competitive binding test using [3H]THK-5117 as radio ligand with AD brain tissue homogenates. The following applies: 2 nM [3H]THK-5117, 100 μg homogenate, 3 hours room temperature. Here is the method: Binding Experiment (1) with AD Brain Tissue Homogenates Competitive Binding Test Using [^3H]THK-5117 as Radio Ligand
PBS (0.1% BSA) was used as an assay buffer, and the concentration of TI-IK-5105S or THK-5105R was adjusted with 2 nM [^3H] THK-5117 to 10^−5 to 10^−10 M in a reaction system (200 μL) containing 100 μg of the homogenates, and the competitive tests were then carried out. A nonspecific binding was measured with 2 μM of THK-5117. After incubation at room temperature for 3 hours, a glass filter plate was used to separate [^3H]THK-5117 bound to the homogenates and unbound [^3H] THK-5117, and the filter plate was washed, and then to the separated filter was added liquid scintillation cocktail, and the bound radioactivity was measured on a liquid scintillation counter. The data was analyzed by analysis software GraphPad Prism (Ver. 5). The competitive tests were carried out similarly on THK-5117S, THK-5117R, THK-5151S, and THK-5151R.

Data set [5] deals with amyloid β (Aβ). In words: Tissue binding test with 10 AD homogenate samples, correlation with Aβ concentration. Further details: species or system human. The settings on record: 1 nM probe, 100 μg tissue, 1 hour incubation. Here is the method:
(§1) Binding Experiment (2) with AD Brain Tissue Homogenates Organization Binding Evaluation Experiment of [^18F]THK-5105S
(§2) According to the above-mentioned assay buffer, nonspecific binding measurement, and filter separation operation, using 10 kinds of AD homogenate samples each having different tau concentration and amyloid β (Aβ) concentration, the reaction system was adjusted such that the tissue concentration was made 100 μg and [^18F]THK-5105S concentration was made 1 nM, and the binding test (1 hour incubation) was carried out in the reaction system.
(§3) As comparative example, the binding test was carried out also on [^18F]THK-5105R according to the similar method. The tau concentration or Aβ concentration was plotted on horizontal axis […], and the bound amount of [^18F]THK-5105S and [^18F]THK-5105R was plotted on vertical axis, and the correlation thereof was evaluated.
(§4) This means that when imaging, [^18F]THK-5105S can be detected the change of the tau concentration more sensitively.

Data set [6] relates to tau. Nature of the data set: Tissue binding test with 10 AD homogenate samples, correlation with tau concentration. The arrangement: species or system human. The settings on record: 1 nM probe, 100 μg tissue, 1 hour incubation, in comparison with [18F]THK-5105R. Here is the method:
as §1, §2, §3, §4

Data set [7] is described as follows: Dynamic evaluation of normal mouse brain by small animal PET. It is filed as in vivo, ICR mouse. Here is the method: For experiments in small animal PET (evaluation of its brain delivery), Polysorbate 80 was added to the ethanol-eluted fraction, from which the ethanol was removed using an evaporator. The [^18F] THK-5105S containing radioactive residue within the flask was dissolved in physiological saline and the solution prepared was used as a solution for injection.
In this experiment, […] was administered intravenously via tail to ICR mouse (male 6 to 7 weeks old) under isoflurane anesthesia (1.5%), and the time-change of radioactivity distribution in brain was measured on Clairvivopet/CT (manufactured by Shimadzu Corporation, Kyoto). The emission scan was started simultaneously with the administration of the probe, and measured in 3D list mode for 120 min. After imaging, 35 frames (10×60 s, 10×120 s, […]) were reconstructed, and a region of interest was set in the brain, and quantified as SUV, and a time-activity curve (TAC) was created, and the Dynamism of the both probes were compared.
THK-5105R. In order to compare the disappearance change, the peak values of the TAC for both probes were converted into 100%, and the TAC was then shown as FIG. 7B. As evident from the TACs, [^18F]THK-51055 has larger ratio of disappearance per hour than [^18F]THK-5105R, that is, has more rapid rate of disappearance.
THK-5105R, and can therefore detect tau lesion with more excellent selectivity.

Where [8] appears, read: read-out: Ki Temporal lobe cortex (607.6 pmol/g tissue).
[9] abbreviates: read-out: Ki Entorhinal cortex 601 pmol/g tissue.
[10] abbreviates: intravenous via tail, in comparison with [18F]THK-5105R.

Sequence of AD brain tissue homogenates (P10636 623-695 limits assumed): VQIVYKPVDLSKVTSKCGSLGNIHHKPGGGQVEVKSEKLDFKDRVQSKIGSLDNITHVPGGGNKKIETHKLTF

For `CNc1ccc(-c2ccc3cc(OC[C@H](O)CF)ccc3n2)cn1` [[^18F]THK-5151S], in data set [1], the “Bmax/Kd value as bonding potential in comparison with [18F]THK-5151R” value is given as “about fourth times large Bmax/Kd value” and the “Kd value in comparison with [18F]THK-5151R” value is reported as “about one tenth small Kd value”. In data set [2] (2 min. after intravenous administration, n = 4), the “accumulation rate of radioactivity in brain, 2 min.” value is reported as 4.36 ± 0.19 % ID/g. Besides, the “accumulation rate of radioactivity in brain, 10 min.” value in data set [2] (10 min. after intravenous administration, n = 4) is on record as 1.10 ± 0.19 % ID/g. For the same molecule, the “accumulation rate of radioactivity in brain, 30 min.” value in data set [2] (30 min. after intravenous administration, n = 4) amounted to 0.21 ± 0.03 % ID/g. For the same molecule, the “accumulation rate of radioactivity in brain, 60 min.” value in data set [2] (60 min. after intravenous administration, n = 4) is on record as 0.13 ± 0.03 % ID/g. Besides, in data set [2] (120 min. after intravenous administration, n = 4), the “accumulation rate of radioactivity in brain, 120 min.” value stood at 0.12 ± 0.02 % ID/g. The “2 min./60 min. ratio” value in data set [2] (brain accumulation rate at 2 min. divided by that at 60 min.) was determined as 33. For the same molecule, the “accumulation rate value after the initial uptake, compared between probes” value in data set [2] (in comparison with [18F]THK-5151R) was “lower values”. Moreover, in data set [2] (shortly after administration), the “brain uptake shortly after administration” value is “about 4 % ID/g”. For the same molecule, the “autoradiography imaging signal in tau lesion region” value in data set [3] is listed as “stronger imaging signal”.
Take `CNc1ccc(-c2ccc3cc(OC[C@H](O)CF)ccc3n2)cc1` [THK-5117S]: in data set [4] (setting [8]), the Ki worked out at 9.4 ± 4.8 nM.
For the molecule `CN(C)c1ccc(-c2ccc3cc(OC[C@H](O)CF)ccc3n2)cc1` [THK-5105S], the Ki amounted to 4.6 nM in data set [4] (setting [9]) and 2.6 nM in data set [4] (setting [8]).
Consider `CN(C)c1ccc(-c2ccc3cc(OC[C@H](O)CF)ccc3n2)cc1` [[^18F]THK-5105S], for which the “correlation of tissue bound amount with the Aβ concentration” value in data set [5] is “could not be found to have a correlation with the Aβ concentration”. Also, in data set [6], the “correlation of tissue bound amount with the tau concentration” value is recorded as “extremely higher correlation with the tau concentration” and the tissue bound amount result is listed as “higher bound amount”. Also, the “SUV ratios 5 min./30 min., 5 min./60 min., 5 min./120 min. compared between probes” value in data set [7] (brain, in comparison with [18F]THK-5105R) is “significantly higher value”. For the same molecule, in data set [7] (brain, intravenous via tail), the “SUV Ratio 5 min./30 min.” value worked out at 2.70 ± 0.1, the “SUV Ratio 5 min./60 min.” value was determined as 6.27 ± 0.6 and the “SUV Ratio 5 min./120 min.” value was 19.2 ± 4.4. In addition, in data set [7] (setting [10]), the “disappearance from normal brain tissue (time-activity curve)” value is “disappeared more rapidly from normal brain tissue” and the “retention into the normal brain tissue” value is “lower retention into the normal brain tissue”.
As for `CN(C)c1ccc(-c2ccc3cc(OCC(O)C[18F])ccc3n2)cc1` (centres unmarked) [[^18F]THK-5105R, reference compound], in data set [5], the “correlation of tissue bound amount with the Aβ concentration” value was “could not be found to have a correlation with the Aβ concentration”. Also, in data set [7] (brain, intravenous via tail), the “SUV Ratio 5 min./30 min.” value came to 1.92 ± 0.3, the “SUV Ratio 5 min./60 min.” value is given as 3.67 ± 0.9 and the “SUV Ratio 5 min./120 min.” value was 7.75 ± 1.6.
For the molecule `CN(C)c1ccc(-c2ccc3cc(OC[C@H](O)C[18F])ccc3n2)cc1` [[^18F]THK-5105S], in data set [3], the “autoradiography imaging signal in tau lesion region” value is on record as “stronger imaging signal”.
Turning to `CN(C)c1ccc(-c2ccc3cc(OC[C@@H](O)CF)ccc3n2)cc1` [THK-5105R, reference compound], the Ki in data set [4] (setting [9]) was 27.4 nM; in data set [4] (setting [8]), 16.3 nM.
As to `CNc1ccc(-c2ccc3cc(OC[C@H](O)CF)ccc3n2)cn1` [THK-5151S], the Ki in data set [4] (setting [8]) came out at 7.2 ± 1.27 nM.
Still for that read-out and setting: under `CNc1ccc(-c2ccc3cc(OCC(O)CF)ccc3n2)cc1` (centres unmarked) [THK-5117R, reference compound] stands 25.7 ± 10.7 nM.

For the origin of these results see patent US20160244411A1, “TAU IMAGING PROBE” (CLINO LTD., priority 2013, published 2016).
